Test system: PI3K
Test: Cellular testing of PI3K inhibitors: P-S473-PKB Luminex assay in PC3 cells
Assay type: cell-based
Procedure: Description of the Method for the Cellular Testing of PI3K Inhibitors
The cellular assay for determination of the P-S473-PKB level is carried out as a Luminex assay in 96-well format in PC3 cells.
PC3 cells are sown out with 20,000 cells per well in 100 μl medium (45% RPMI1460/45% Ham's F12/10% FCS) and incubated on the following day for 30 min with a serial dilution of the test substance (7 concentrations) under serum-free conditions. […] The lysates are incubated overnight at 4° C. with shaking with Luminex beads to which an anti-total PKB antibody is coupled. The detection is carried out on the following day by addition of a P-S473-PKB antibody and a species-specific PE-labelled secondary antibody. The detection of P-S473-PKB is carried out by measurement in a Luminex 100 instrument by determination of 100 events per cavity in a measurement time of 60 sec. […] The values of the preparations treated with test substance are calculated from this as percent of control, and IC50 values are determined by means of RS1.

[1] = PI3K-dependent phosphorylation of PKB at Serin 473 in PC3 cells

Structure (SMILES)	IC50 (PI3 kinase inhibition, cell) [nM]	IC50 [1] [nM]
COc1cc(Nc2nc3ccccc3nc2NS(=O)(=O)c2cn(C)cn2)c(OCC(C)CO)c(OC)c1 (stereo not drawn) [Compound A32]	100 to 10000	–
COc1ccc(CCO)c(Nc2nc3ccccc3nc2NS(C)(=O)=O)c1 [reference compound]	–	4900
COc1cc(Nc2nc3ccccc3nc2NS(=O)(=O)c2cn(C)cn2)c(CCCN2CCS(=O)(=O)CC2)c(OC)c1 [Compound A4]	100 to 10000	–
COCCOCCOc1c(Nc2nc3ccccc3nc2NS(=O)(=O)c2ccc(C#N)cc2)cc(OC)cc1OC [Compound A48]	1 to 100	–
COc1cc(Nc2nc3ccccc3nc2NS(=O)(=O)c2ccc(C(=O)N3CCC3)cc2)c(OCCCO)c(OC)c1 [Compound A102]	1 to 100	–
COc1ccc(CCCO)c(Nc2nc3ccccc3nc2NS(=O)(=O)c2cn(C)c(CN(C)C)n2)c1 [reference compound]	–	1100
COc1cc(Nc2nc3ccccc3nc2NS(=O)(=O)N(C)C)c(OCCCO)c(OC)c1 [Compound A104]	1 to 100	–
COc1cc(Nc2nc3ccccc3nc2NS(=O)(=O)c2cn(C)cn2)c(OCCO)c(OC)c1 [Compound A89]	1 to 100	–
COc1ccc(CCO)c(Nc2nc3ccccc3nc2NS(=O)(=O)c2ccc(F)cc2)c1 [reference compound]	–	290
COc1cc(Nc2nc3ccccc3nc2NS(=O)(=O)c2ccc(F)c(F)c2)c(OCCCO)c(OC)c1 [Compound A71]	1 to 100	–
COc1cc(Nc2nc3ccccc3nc2NS(=O)(=O)c2cn(C)c(CN(C)C)n2)c(OCCC(C)O)c(OC)c1 (stereo not drawn) [drawing 153]	–	4.6
COc1cc(Nc2nc3ccccc3nc2NS(=O)(=O)c2ccc(C#N)cc2)c(OC)c(OC)c1 [Compound A91]	1 to 100	–
COc1cc(Nc2nc3ccccc3nc2NS(=O)(=O)c2cn(C)cn2)cc(OC)c1 [reference compound]	–	985
COc1cc(Nc2nc3ccccc3nc2NS(=O)(=O)c2ccccc2OC)c(OCCCO)c(OC)c1 [Compound A26]	100 to 10000	–
COc1cc(Nc2nc3ccccc3nc2NS(=O)(=O)c2ccn(CC(=O)N(C)C)n2)c(OCCC(C)O)c(OC)c1 (stereo not drawn) [Compound A120]	1 to 100	–
COc1cc(Nc2nc3ccccc3nc2NS(=O)(=O)CCCS(C)(=O)=O)c(OCCCO)c(OC)c1 [Compound A36]	1 to 100	–
COc1cc(Nc2nc3ccccc3nc2NS(=O)(=O)c2ccc(CN3CCC3)cc2)c(OCCCO)c(OC)c1 [Compound A111, 4-Azetidin-1-ylmethyl-N-{3-[2-(3-hydroxypropoxy)-3,5-dimethoxyphenylamino]-quinoxalin-2-yl}-benzenesulfonamide]	100 to 10000	–
CCOC(=O)Nc1ccc(S(=O)(=O)Nc2nc3ccccc3nc2Nc2cc(OC)cc(OC)c2OCCCO)cc1 [Compound A34]	100 to 10000	–
COc1cc(Nc2nc3ccccc3nc2NS(=O)(=O)c2cccc(C(=O)N3CCC3)c2)c(OCCCO)c(OC)c1 [Compound A108]	100 to 10000	–
COc1cc(Nc2nc3ccccc3nc2NS(=O)(=O)c2ccc(F)cc2)c(OCCOCCO)c(OC)c1 [drawing 159]	–	1.4
COc1cc(Nc2nc3ccccc3nc2NS(=O)(=O)c2cn(C)cn2)c(CCCCO)c(OC)c1 [Compound A7]	100 to 10000	–
COc1ccc(CCCO)c(Nc2nc3ccccc3nc2NS(=O)(=O)c2cn(C)cn2)c1 [reference compound]	–	370
COc1cc(Nc2nc3ccccc3nc2NS(=O)(=O)c2cn(C)cn2)c2c(c1)OCCO2 [Compound A10]	100 to 10000	–
COc1cc(Nc2nc3ccccc3nc2NS(=O)(=O)c2ccc(NC(C)=O)cc2)c(OCCOCCO)c(OC)c1 [Compound A62]	100 to 10000	–
COc1cc(Nc2nc3ccccc3nc2NS(=O)(=O)CCC#N)c(OCCCO)c(OC)c1 [Compound A96]	100 to 10000	–

Further lines, results first:

IC50 (PI3 kinase inhibition, cell) [nM]	IC50 [1] [nM]	Structure (SMILES)
> 10000	–	COc1cc(Nc2nc3ccccc3nc2NS(=O)(=O)c2ccc(C(=O)N(C)C)cc2)c2occc2c1 [Compound A15]
100 to 10000	–	COc1cc(Nc2nc3ccccc3nc2NS(=O)(=O)c2ccc(C#N)cc2)c(CCCN(C)C)c(OC)c1 [Compound A2]
100 to 10000	–	COc1cc(Nc2nc3ccccc3nc2NS(=O)(=O)c2cn(C)c(CN(C)C)n2)c(OCCCCO)c(OC)c1 [Compound A113]
–	2600	COc1ccc(CCCS(C)(=O)=O)c(Nc2nc3ccccc3nc2NS(=O)(=O)c2cn(C)cn2)c1 [reference compound]
1 to 100	–	COc1cc(Nc2nc3ccccc3nc2NS(=O)(=O)c2cccc(CN3CCC3)c2)c(OCCCO)c(OC)c1 [Compound A116, 3-Azetidin-1-ylmethyl-N-{3-[2-(3-hydroxypropoxy)-3,5-dimethoxyphenylamino]-quinoxalin-2-yl}-benzenesulfonamide]
100 to 10000	–	CCc1c(Nc2nc3ccccc3nc2NS(=O)(=O)c2cn(C)cn2)cc(OC)cc1OC [Compound A14]
1 to 100	–	COc1cc(Nc2nc3ccccc3nc2NS(=O)(=O)c2ccn(C)n2)c(OCCC(C)O)c(OC)c1 (stereo not drawn) [Compound A100]
1 to 100	–	COc1cc(Nc2nc3ccccc3nc2NS(=O)(=O)c2ccn(C)n2)c(OCCC(C)(C)O)c(OC)c1 [Compound A125]
1 to 100	–	COc1cc(Nc2nc3ccccc3nc2NS(=O)(=O)c2ccn(CC(=O)N(C)C)n2)c(OC)c(OC)c1 [Compound A131]
100 to 10000	–	COc1cc(Nc2nc3ccccc3nc2NS(=O)(=O)c2cccc(C(=O)N3CC(F)(F)C3)c2)c(OCCCO)c(OC)c1 [Compound A107]
1 to 100	–	COc1cc(Nc2nc3ccccc3nc2NS(=O)(=O)c2ccc(C#N)cc2)c(OCCCO)c(OC)c1 [Compound A82]
–	970	COc1ccc(CCCO)c(Nc2nc3ccccc3nc2NS(=O)(=O)C2CCS(=O)(=O)C2)c1 (stereo not drawn) [reference compound]
1 to 100	–	COc1cc(Nc2nc3ccccc3nc2NS(=O)(=O)c2ccc(C#N)cc2)c(OCC[S+]([O-])CCO)c(OC)c1 (stereo not drawn) [Compound A72]
100 to 10000	–	CCN(CC)Cc1nc(S(=O)(=O)Nc2nc3ccccc3nc2Nc2cc(OC)cc(OC)c2OCCC(C)O)cn1C (stereo not drawn) [Compound A123]
100 to 10000	–	COc1cc(Nc2nc3ccccc3nc2NS(C)(=O)=O)c(OCCCO)c(OC)c1 [Compound A25]
1 to 100	–	COc1cc(Nc2nc3ccccc3nc2NS(=O)(=O)c2cnn(C)c2)c(OCCCO)c(OC)c1 [Compound A44]
1 to 100	–	COc1cc(Nc2nc3ccccc3nc2NS(=O)(=O)c2cccs2)c(OCCN(C)CCO)c(OC)c1 [Compound A60]
100 to 10000	–	CCN(CC)Cc1nc(S(=O)(=O)Nc2nc3ccccc3nc2Nc2cc(OC)cc(OC)c2OCCCO)cn1C [Compound A126]
100 to 10000	–	COc1cc(Nc2nc3ccccc3nc2NS(=O)(=O)C(F)F)c(OCCCO)c(OC)c1 [Compound A114]

IC50 (PI3 kinase inhibition, cell) [nM]	IC50 [1] [nM]	Structure (SMILES)
1 to 100	–	COc1cc(Nc2nc3ccccc3nc2NS(=O)(=O)c2ccn(CC(=O)N(C)C)n2)c(OCCCO)c(OC)c1 [Compound A122]
100 to 10000	–	COc1cc(Nc2nc3ccccc3nc2NS(=O)(=O)c2cn(C)c(CN(C)C)n2)c(OCCC(C)(C)O)c(OC)c1 [Compound A128]
100 to 10000	–	COc1cc(C)c(OC)c(Nc2nc3ccccc3nc2NS(=O)(=O)c2cn(C)cn2)c1 [Compound A11]
1 to 100	–	COc1cc(Nc2nc3ccccc3nc2NS(=O)(=O)c2ccn(CCN(C)C)n2)c(OCCCO)c(OC)c1 [Compound A130, 1-(2-Dimethylaminoethyl)-1H-pyrazole-3-sulfonic acid {3-[2-(3-hydroxypropoxy)-3,5-dimethoxy-phenylamino]quinoxalin-2-yl} amide]
100 to 10000	–	CCCS(=O)(=O)Nc1nc2ccccc2nc1Nc1cc(OC)cc(OC)c1OCCOCCO [Compound A56]
1 to 100	–	COc1cc(Nc2nc3ccccc3nc2NS(=O)(=O)c2ccc(C#N)s2)c(OCCCO)c(OC)c1 [Compound A51]
100 to 10000	–	COc1cc(Nc2nc3ccccc3nc2NS(=O)(=O)c2cccc(C(=O)N(C)C)c2)c(OCCCO)c(OC)c1 [Compound A97]
1 to 100	–	COc1cc(Nc2nc3ccccc3nc2NS(=O)(=O)c2cn(C)cn2)c(OCCCO)c(OC)c1 [Compound A86]
1 to 100	–	COc1cc(Nc2nc3ccccc3nc2NS(=O)(=O)c2ccc(CN)cc2)c(OCCCO)c(OC)c1 [Compound A106, 4-aminomethyl-N-{3-[2-(3-hydroxypropoxy)-3,5-dimethoxy-phenylamino]-quinoxalin-2-yl}benzenesulfonamide]
1 to 100	–	COc1cc(Nc2nc3ccccc3nc2NS(=O)(=O)c2ccc(C#N)cc2)c(CCCCO)c(OC)c1 [Compound A6]
> 10000	–	CCc1cc(OC)cc(Nc2nc3ccccc3nc2NS(=O)(=O)c2ccc(C(=O)N(C)C)cc2)c1OC [Compound A18]
1 to 100	–	COc1cc(Nc2nc3ccccc3nc2NS(=O)(=O)c2ccc(C#N)cc2)c(OCCN2CCOCC2)c(OC)c1 [Compound A70]
–	38	COc1cc(Nc2nc3ccccc3nc2NS(C)(=O)=O)c(OCCC(C)O)c(OC)c1 (stereo not drawn) [drawing 155]
100 to 10000	–	COc1cc(Nc2nc3ccccc3nc2NS(=O)(=O)c2cn(C)cn2)c(OC)c(OC)c1 [Compound A92]
100 to 10000	–	COc1cc(Nc2nc3ccccc3nc2NS(=O)(=O)c2cnn(C)c2)c(OCCC(C)O)c(OC)c1 (stereo not drawn) [Compound A43]
1 to 100	–	COc1cc(Nc2nc3ccccc3nc2NS(=O)(=O)c2ccc(C#N)cc2)c(OCC(O)CO)c(OC)c1 (stereo not drawn) [Compound A74]
1 to 100	–	COCCOCCOc1c(Nc2nc3ccccc3nc2NS(=O)(=O)c2cn(C)cn2)cc(OC)cc1OC [Compound A47]
100 to 10000	–	COc1cc(Nc2nc3ccccc3nc2NS(=O)(=O)c2cn(C)cn2)c2c(c1)OCC(CO)O2 (stereo not drawn) [Compound A127]
1 to 100	–	COc1cc(Nc2nc3ccccc3nc2NS(=O)(=O)c2cccs2)c(OCCO)c(OC)c1 [Compound A66]

Reference: patent US8895559B2, “Quinoxalines derivatives and pharmaceutical compositions and kits” (Merck Patent GmbH, priority 2010, dated 2014)
